Results published in PubChem BioAssay (NCI).
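Test compounds were applied to cells in 96-well plates for 48 hours at 5 doses. At the TGI there is no net growth.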

Experiments:
Assay in all cases: growth of human tumour cells (NCI), 48 h
CAKI-1 renal = test system: CAKI-1 renal
SK-OV-3 ovarian = test system: SK-OV-3 ovarian
PC-3 prostate = test system: PC-3 prostate
MDA-MB-435 = test system: MDA-MB-435
DU-145 prostate = test system: DU-145 prostate
SW-620 colon = test system: SW-620 colon
TK-10 renal = test system: TK-10 renal
COLO 205 colon = test system: COLO 205 colon
RPMI-8226 leukemia = test system: RPMI-8226 leukemia
HCC-2998 colon = test system: HCC-2998 colon
MOLT-4 leukemia = test system: MOLT-4 leukemia
NCI-H522 lung = test system: NCI-H522 lung
UACC-62 melanoma = test system: UACC-62 melanoma
SK-MEL-5 melanoma = test system: SK-MEL-5 melanoma
SF-268 CNS = test system: SF-268 CNS
SK-MEL-2 melanoma = test system: SK-MEL-2 melanoma
EKVX NSCLC = test system: EKVX NSCLC
SF-539 CNS = test system: SF-539 CNS
U251 CNS = test system: U251 CNS
MDA-N = test system: MDA-N
HOP-92 NSCLC = test system: HOP-92 NSCLC
HL-60(TB) leukemia = test system: HL-60(TB) leukemia
SK-MEL-28 melanoma = test system: SK-MEL-28 melanoma
T-47D breast = test system: T-47D breast
ACHN renal = test system: ACHN renal
MCF7 breast = test system: MCF7 breast
K-562 leukemia = test system: K-562 leukemia
NCI-H460 lung = test system: NCI-H460 lung
UACC-257 melanoma = test system: UACC-257 melanoma
MDA-MB-231 breast = test system: MDA-MB-231 breast
HT29 colon = test system: HT29 colon
A498 renal = test system: A498 renal
HS 578T breast = test system: HS 578T breast
SR leukemia = test system: SR leukemia
LOX IMVI melanoma = test system: LOX IMVI melanoma
SN12C renal = test system: SN12C renal
CCRF-CEM leukemia = test system: CCRF-CEM leukemia
OVCAR-3 ovarian = test system: OVCAR-3 ovarian
NCI/ADR-RES ovarian = test system: NCI/ADR-RES ovarian
HCT-15 colon = test system: HCT-15 colon
OVCAR-8 ovarian = test system: OVCAR-8 ovarian
HCT-116 colon = test system: HCT-116 colon
MALME-3M melanoma = test system: MALME-3M melanoma
OVCAR-5 ovarian = test system: OVCAR-5 ovarian
SF-295 CNS = test system: SF-295 CNS
RXF 393 renal = test system: RXF 393 renal
A549 NSCLC = test system: A549 NSCLC
NCI-H226 lung = test system: NCI-H226 lung
786-0 renal = test system: 786-0 renal
BT-549 breast = test system: BT-549 breast
IGROV1 ovarian = test system: IGROV1 ovarian
KM12 colon = test system: KM12 colon
OVCAR-4 ovarian = test system: OVCAR-4 ovarian
UO-31 renal = test system: UO-31 renal
HOP-62 NSCLC = test system: HOP-62 NSCLC
SNB-75 CNS = test system: SNB-75 CNS
NCI-H23 lung = test system: NCI-H23 lung
SNB-19 CNS = test system: SNB-19 CNS
M14 melanoma = test system: M14 melanoma

Measured: TGI

CN(/N=C(\C(=O)O)c1ccccc1)C1=NCCCCN1
not listed: SNB-19 CNS | M14 melanoma
> 100 µM: all other assays above

CC(/C=N/N(C)C1=NCCCN1)=N/N(C)C1=NCCCN1
not listed: M14 melanoma
> 100 µM: all other assays above

COc1ccc2c(c1)C(N)=C(c1ccccc1OC)C2=O
not listed: NCI-H522 lung | SK-MEL-5 melanoma | A549 NSCLC
> 100 µM: all other assays above
